Results as given in BindingDB's records for doi:10.7270/Q2TX3CTT (Broad Institute, 2010).

Target: Glycogen synthase kinase-3 beta (Homo sapiens, UniProt P49841)
Test: GSK3beta kinase inhibitor potency, dose response, biochemical, luminescence, cell-free homogeneous, retest (AID 434954)

Chain of Glycogen synthase kinase-3 beta (P49841 whole entry): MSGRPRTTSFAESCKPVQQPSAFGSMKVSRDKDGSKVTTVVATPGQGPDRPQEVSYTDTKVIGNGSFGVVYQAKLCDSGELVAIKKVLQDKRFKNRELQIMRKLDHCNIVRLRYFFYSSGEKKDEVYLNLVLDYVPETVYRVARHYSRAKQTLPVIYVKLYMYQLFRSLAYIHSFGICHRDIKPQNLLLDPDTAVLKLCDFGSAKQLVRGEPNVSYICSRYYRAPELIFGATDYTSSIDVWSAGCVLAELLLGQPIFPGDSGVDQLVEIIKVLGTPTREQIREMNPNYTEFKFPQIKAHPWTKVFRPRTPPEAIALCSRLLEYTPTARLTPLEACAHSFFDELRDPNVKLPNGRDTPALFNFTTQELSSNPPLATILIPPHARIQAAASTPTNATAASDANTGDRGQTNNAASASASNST

Q: For Fc1ccc(Nc2nc(-c3ccncc3)nc3ccccc23)cc1 [(4-Fluoro-phenyl)-(2-pyridin-4-yl-quinazolin-4-yl)-amine], which EC50 is on record?
A: > 300 µM

Q: Nc1nc(Nc2ccccc2)sc1C(=O)c1ccccc1 [(4-azanyl-2-phenylazanyl-1,3-thiazol-5-yl)-phenyl-methanone] was tested. Which EC50 did it give?
A: 0.171 µM

Q: For CCCCc1cc(=O)oc2cc(OS(C)(=O)=O)ccc12 [(4-butyl-2-oxidanylidene-chromen-7-yl) methanesulfonate], which EC50 is on record?
A: > 300 µM

Q: Which EC50 does the source give for Cc1ccc(C(=O)c2coc3ccc(O)c(Cl)c23)cc1 [(4-chloro-5-hydroxy-3-benzofuranyl)-(4-methylphenyl)methanone] here?
A: > 300 µM

Q: Which EC50 does the source give for O=C(Oc1ccc(Cl)cc1)N1CCCCC1 [(4-chlorophenyl) piperidine-1-carboxylate] here?
A: > 300 µM

Q: Which EC50 does the source give for CCOc1ccc2nc(N3CCC(C(=O)N4CCN(C5CCCCC5)CC4)CC3)sc2c1 [(4-cyclohexyl-1-piperazinyl)-[1-(6-ethoxy-1,3-benzothiazol-2-yl)-4-piperidinyl]methanone] here?
A: > 300 µM

Q: For CCc1ccc(C(=O)c2cnc3ccc(OC)cc3c2N2CCN(CC)CC2)cc1 [(4-ethylphenyl)-[4-(4-ethylpiperazin-1-yl)-6-methoxy-quinolin-3-yl]methanone], which EC50 is on record?
A: 20.7 µM

Q: For COc1ccc(COC(=O)c2cccc(S(=O)(=O)N3CCN(C(C)=O)CC3)c2)cc1 [(4-methoxyphenyl)methyl 3-(4-acetylpiperazin-1-yl)sulfonylbenzoate], which EC50 is on record?
A: > 300 µM

Q: Which EC50 does the source give for CN1CCN(C(=O)c2ccc(OCCOc3ccccc3)cc2)CC1 [(4-methylpiperazin-1-yl)-[4-(2-phenoxyethoxy)phenyl]methanone] here?
A: > 300 µM

Q: How did the EC50 turn out when Cn1nc(C(F)(F)F)c2cc(NC(=O)OCc3ccc(C(C)(C)C)cc3)sc21 [(4-tert-butylphenyl)methyl N-[1-methyl-3-(trifluoromethyl)thieno[2,3-c]pyrazol-5-yl]carbamate] was run?
A: > 300 µM

Q: For CCN(CC)CCN1C(=O)C(=O)C(C(=O)c2ccc(S(=O)(=O)N3CCOCC3)cc2)C1c1ccccc1 (stereo not given) [(4E)-1-[2-(diethylamino)ethyl]-4-[hydroxy-[4-(4-morpholinylsulfonyl)phenyl]methylidene]-5-phenylpyrrolidine-2,3-dione], which EC50 is on record?
A: > 300 µM

Q: With COc1cc(CN=Nc2ccc(C(F)(F)F)cn2)ccc1O [(4E)-2-methoxy-4-[[[5-(trifluoromethyl)-2-pyridinyl]hydrazo]methylidene]-1-cyclohexa-2,5-dienone] as the compound, how does the EC50 read?
A: 10.1 µM

Q: How did the EC50 turn out when Cc1cc(-c2onc3ccc(Cl)cc23)ccc1O [(4E)-4-(5-chloro-1H-2,1-benzoxazol-3-ylidene)-2-methylcyclohexa-2,5-dien-1-one] was run?
A: > 300 µM

Q: How did the EC50 turn out when COCCN1C(=O)N[C@@H](c2cccc(C(F)(F)F)c2)[C@H](C(C)=O)[C@H]1C [(4R,5S,6R)-5-acetyl-1-(2-methoxyethyl)-6-methyl-4-[3-(trifluoromethyl)phenyl]-1,3-diazinan-2-one] was run?
A: > 300 µM

Q: How did the EC50 turn out when Cc1n[nH]c2c1[C@@H](c1ccccc1[N+](=O)[O-])C(C#N)C(=N)O2 (stereo partly drawn) [(4S)-6-azanyl-3-methyl-4-(2-nitrophenyl)-2,4-dihydropyrano[2,3-c]pyrazole-5-carbonitrile] was run?
A: 9.65 µM

Q: For Oc1ccc(CN=Nc2ccc(C(F)(F)F)cn2)cc1O [(4Z)-2-hydroxy-4-[[2-[5-(trifluoromethyl)pyridin-2-yl]hydrazinyl]methylidene]cyclohexa-2,5-dien-1-one], which EC50 is on record?
A: 16.1 µM

Q: Which EC50 does the source give for CCc1cc(=O)oc2cc(OC(C)=O)cc(OC(C)=O)c12 [(5-acetyloxy-4-ethyl-2-oxidanylidene-chromen-7-yl) ethanoate] here?
A: 28.5 µM

Q: For COc1ccc2occ(C(=O)c3ccccc3)c2c1 [(5-methoxy-1-benzofuran-3-yl)-phenyl-methanone], which EC50 is on record?
A: 22.9 µM

Q: With COc1ccc2oc(C)c(C(=O)c3ccc(C)cc3)c2c1 [(5-methoxy-2-methyl-3-benzofuranyl)-(4-methylphenyl)methanone] as the compound, how does the EC50 read?
A: > 300 µM

Q: Which EC50 does the source give for O=c1[nH]c(=S)n(-c2ccccc2F)c(O)c1C=NCc1ccco1 [(5E)-1-(2-fluorophenyl)-5-[(furan-2-ylmethylamino)methylidene]-2-sulfanylidene-1,3-diazinane-4,6-dione] here?
A: 80.2 µM

Q: Which EC50 does the source give for CCCCCCN1C(=O)NC(=O)C(=CNCCCn2ccnc2)C1=O [(5E)-1-hexyl-5-[[3-(1-imidazolyl)propylamino]methylidene]-1,3-diazinane-2,4,6-trione] here?
A: 14.3 µM

Q: How did the EC50 turn out when O=C1/C(=C\c2ccc(O)cc2)SC(=S)N1Cc1ccccc1 [(5E)-5-[(4-hydroxyphenyl)methylidene]-3-(phenylmethyl)-2-sulfanylidene-1,3-thiazolidin-4-one] was run?
A: > 300 µM

Q: Which EC50 does the source give for COc1cc(CNC=C2C(=O)NC(=O)N(C(C)(C)C)C2=O)cc(OC)c1 [(5Z)-1-tert-butyl-5-[[(3,5-dimethoxyphenyl)methylamino]methylidene]-1,3-diazinane-2,4,6-trione] here?
A: > 300 µM

Q: CN1C(=Cc2ccc(F)cc2)C(=O)N=C1N [(5Z)-2-azanyl-5-[(4-fluorophenyl)methylidene]-1-methyl-imidazol-4-one] was tested. Which EC50 did it give?
A: > 300 µM

Q: With CC1=C(C#N)C(=O)NC(=O)C1=NNc1cccc(C)c1 [(5Z)-4-methyl-5-[(3-methylphenyl)hydrazinylidene]-2,6-bis(oxidanylidene)pyridine-3-carbonitrile] as the compound, how does the EC50 read?
A: 0.775 µM

Q: Which EC50 does the source give for COc1ccc(C=C2SC(NCc3ccccc3)=NC2=O)cc1 [(5Z)-5-[(4-methoxyphenyl)methylidene]-2-[(phenylmethyl)amino]-1,3-thiazol-4-one] here?
A: 7.01 µM

Q: Which EC50 does the source give for CC1=C(C#N)C(=O)NC(=O)C1=CNc1ccc(S(=O)(=O)CCO)cc1 [(5Z)-5-[[[4-(2-hydroxyethylsulfonyl)phenyl]amino]methylidene]-4-methyl-2,6-bis(oxidanylidene)pyridine-3-carbonitrile] here?
A: > 300 µM

Q: With CCCOc1cc(C)nc(-c2ccccc2O)n1 [(6E)-6-(6-methyl-4-propoxy-1H-pyrimidin-2-ylidene)-1-cyclohexa-2,4-dienone] as the compound, how does the EC50 read?
A: > 300 µM

Q: For CCNc1nc(N)nc(-c2cc(Cl)ccc2O)n1 [(6E)-6-[6-amino-4-(ethylamino)-1H-1,3,5-triazin-2-ylidene]-4-chloro-1-cyclohexa-2,4-dienone], which EC50 is on record?
A: 3.56 µM

Q: How did the EC50 turn out when Cc1cc(N2CCC(C)CC2)nc(-c2ccccc2O)n1 [(6E)-6-[6-methyl-4-(4-methyl-1-piperidinyl)-1H-pyrimidin-2-ylidene]-1-cyclohexa-2,4-dienone] was run?
A: > 300 µM

Q: Which EC50 does the source give for Oc1ccccc1CN=Nc1nnn[nH]1 [(6E)-6-[(2H-tetrazol-5-ylhydrazo)methylidene]-1-cyclohexa-2,4-dienone] here?
A: > 300 µM

Q: For C[C@H]1CCCC(=O)CCCC=Cc2cc(O)cc(O)c2C(=O)O1 [(11S)-11-methyl-15,17-bis(oxidanyl)-12-oxabicyclo[12.4.0]octadeca-1(18),2,14,16-tetraene-7,13-dione], which EC50 is on record?
A: 5.45 µM

Q: COc1ccc(-c2nn(-c3ccccc3)cc2/C=C(\C#N)S(=O)(=O)c2ccccc2)cc1OC [(E)-2-(benzenesulfonyl)-3-[3-(3,4-dimethoxyphenyl)-1-phenyl-4-pyrazolyl]-2-propenenitrile] was tested. Which EC50 did it give?
A: > 300 µM

Q: O=C(O)/C=C/c1cccc2c1OCCO2 [(E)-3-(2,3-dihydro-1,4-benzodioxin-5-yl)-2-propenoic acid] was tested. Which EC50 did it give?
A: > 300 µM

Q: For COc1cc(/C=C(\C#N)C(=O)c2c[nH]c3ccccc23)cc(OC)c1O [(E)-3-(4-hydroxy-3,5-dimethoxyphenyl)-2-(1H-indole-3-carbonyl)prop-2-enenitrile], which EC50 is on record?
A: 6.57 µM

Q: Which EC50 does the source give for O=C(O)/C=C/C(=O)NCC1CCC(CNC(=O)/C=C/C(=O)O)CC1 (stereo not given) [(E)-4-[[4-[[[(E)-3-carboxy-1-oxoprop-2-enyl]amino]methyl]cyclohexyl]methylamino]-4-oxo-2-butenoic acid] here?
A: > 300 µM

Q: For COc1ccc(/C=C/C(=O)NC2CCN(Cc3ccccc3)CC2)cc1OC [(E)-N-(1-benzylpiperidin-4-yl)-3-(3,4-dimethoxyphenyl)prop-2-enamide], which EC50 is on record?
A: > 300 µM

Q: How did the EC50 turn out when Cc1cc(NC(=O)/C=C/c2cccc(F)c2)n(-c2nc3ccccc3[nH]2)n1 [(E)-N-[2-(1H-benzimidazol-2-yl)-5-methylpyrazol-3-yl]-3-(3-fluorophenyl)prop-2-enamide] was run?
A: > 300 µM

Q: N#CC(=Cc1c[nH]nc1-c1ccc(Br)cc1)C(=O)O [(Z)-3-[5-(4-bromophenyl)-1H-pyrazol-4-yl]-2-cyanoprop-2-enoic acid] was tested. Which EC50 did it give?
A: > 300 µM

Q: Which EC50 does the source give for CCOC(=O)C=C(C)[N+]1=N[C-](c2ccc(OC)cc2)CC1c1cccc([N+](=O)[O-])c1 (stereo not given) [(Z)-3-[5-(4-methoxyphenyl)-3-(3-nitrophenyl)-3,4-dihydropyrazol-2-yl]-2-butenoic acid ethyl ester] here?
A: > 300 µM

Q: For Cc1ccc(C(OCCN(C)C)c2cccc(C(F)(F)F)c2)cc1 (stereo not given) [(Z)-but-2-enedioic acid;N,N-dimethyl-2-[(4-methylphenyl)-[3-(trifluoromethyl)phenyl]methoxy]ethanamine], which EC50 is on record?
A: > 300 µM

Q: Which EC50 does the source give for CN1/C(=C/C=C(/C#N)C(N)=O)C(C)(C)c2ccccc21 [(Z,4E)-2-cyano-4-(1,3,3-trimethyl-2-indolylidene)-2-butenamide] here?
A: 15.5 µM

Q: With Cc1c(C(=O)OCc2ccccc2)nnn1-c1nonc1N [(phenylmethyl) 1-(4-azanyl-1,2,5-oxadiazol-3-yl)-5-methyl-1,2,3-triazole-4-carboxylate] as the compound, how does the EC50 read?
A: 7.34 µM

Q: Which EC50 does the source give for CC1=Nc2ncnn2C(c2cccnc2)C1C(=O)OCc1ccccc1 (stereo not given) [(phenylmethyl) 5-methyl-7-pyridin-3-yl-1,7-dihydro-[1,2,4]triazolo[1,5-a]pyrimidine-6-carboxylate] here?
A: 28 µM

Q: With COc1cccc(C2C(C(=O)OCc3ccccc3)C(C)=Nc3ncnn32)c1OC (stereo not given) [(phenylmethyl) 7-(2,3-dimethoxyphenyl)-5-methyl-1,7-dihydro-[1,2,4]triazolo[1,5-a]pyrimidine-6-carboxylate] as the compound, how does the EC50 read?
A: 3.82 µM

Q: With COc1cccc2cc(C(=O)OCc3ccccc3)c(=O)oc12 [(phenylmethyl) 8-methoxy-2-oxidanylidene-chromene-3-carboxylate] as the compound, how does the EC50 read?
A: > 300 µM

Q: How did the EC50 turn out when CCNc1nc(N)c(C(=O)C23CC4CC(CC(C4)C2)C3)s1 [Adamantan-1-yl-(4-amino-2-ethylamino-thiazol-5-yl)-methanone] was run?
A: > 300 µM

Q: For OC[C@H]1O[C@@H](n2cnc3c(O)ncnc32)[C@H](O)[C@@H]1O [Atorel], which EC50 is on record?
A: > 300 µM

Q: With c1ccc(CNCC2COc3ccccc3O2)cc1 (stereo not given) [Benzyl-(2,3-dihydro-benzo[1,4]dioxin-2-ylmethyl)-amine] as the compound, how does the EC50 read?
A: > 300 µM

Q: For CCN1C(=O)N[C@@H](c2ccccc2)[C@@H](C(=O)OC)[C@H]1C [CMLD004197], which EC50 is on record?
A: > 300 µM
